# Reference: US20230303604A1, “METALLIC TRANS-(N-HETEROCYCLIC CARBENE)-AMINE-PLATINUM COMPLEXES AND USES THEREOF FOR TREATING CANCER” (INSTITUT CURIE, priority 2020, published 2023)
# Columns and labels:
# Type in all cases: cell-based
# [1] = test system: A2780cis (A2780/DDP) cells; assay: Cell proliferation evaluation on cisplatin-resistant A2780cis; settings: for ability to counteract the cisplatin resistance: A780cis cell line
# Experimental: (§1) Cell culture. The A2780 ovarian carcinoma cell lines were purchased from ECACC (Salisbury, UK) and were grown in complete RPMI medium supplemented with 10% fetal calf serum, in the presence of penicillin, streptomycin. The resistance of A2780/DDP cells to cisplatin was maintained by monthly treatment with 1 μM cisplatin for 4 days. H1299 Non Small Cell Lung Carcinoma (ATCC® CRL-5803™) and were grown in RPMI medium supplemented with 10% fetal calf serum, 1% HEPES, 1% Sodium Pyruvate in the presence of penicillin and streptomycin. In addition, four cervical cancerous cell lines, already resistant to some conventional chemotherapy (Gemcitabin, methothrexate, vinorelbin and/or cisplatin) were chosen: IC5 (from Institut Curie), CRL1550 (ATCC® CRL1550™), CC11^+ (Cellosaurus CVCL_DF82) and CRL7920 (ATCC® CRL7920™). They were grown in complete RPMI medium supplemented with 10% fetal calf serum, in the presence of penicillin, streptomycin.
# Cell proliferation evaluation. Cells were treated with various concentrations of NHC-Pt, at 37° C. under humidity and 5% CO2 conditions for 96 h. Cellular growth was quantified using the Moxi Z Mini automated cell counter (Orflox technology). CellTiter Glo® Luminescent Cell Viability Assay following the kit instructions (Promega) was also used. But since doses that inhibit 50% of cell proliferation (IC50) not always correlated to the number of cells, as previously observed (Uehara, T., Mitsuhashi, A., Tsuruoka, N., and Shozu, M. (2015) Metformin potentiates the anticancer effects of cisplatin under normoxic conditions in vitro, Oncology reports 33, 744-750), cell counting was privileged. […]
# [2] = test system: IC5 cervical cancerous cell line; assay: Cell proliferation evaluation on IC5; settings: IC5, 4 days treatment
# Experimental: as §1
# (§2) Cell proliferation evaluation. Cells were treated with various concentrations of NHC-Pt, at 37° C. under humidity and 5% CO2 conditions for 96 h. Cellular growth was quantified using the Moxi Z Mini automated cell counter (Orflox technology). CellTiter Glo® Luminescent Cell Viability Assay following the kit instructions (Promega) was also used. […]
# [3] = test system: A2780 ovarian carcinoma cell lines; assay: Cell proliferation evaluation (cell counting) on A2780; settings: A2780, 4 days (96 h) treatment
# Experimental: as §1, §2
# [4] = test system: CC11^+ cervical cancerous cell line; assay: Cell proliferation evaluation on CC11+; settings: 4 days treatment
# Experimental: as §1, §2
# [5] = test system: CRL1550 cervical cancerous cell line; assay: Cell proliferation evaluation on CRL1550; settings: CRL1550, 4 days treatment
# Experimental: as §1, §2
# [6] = test system: cervical cancerous cell lines (IC5, CC11^+, CRL1550, CRL7920); assay: Cell proliferation evaluation, statements over the cervical cancerous cell lines; settings: three cervical cancerous cell lines
# Experimental: as §1, §2
# A2780 cell lines = assay: Radiosensitization assay on A2780; settings: A2780, 1 μM complex, 1 day pretreatment, D10 six days post-irradiation
# Experimental: (§3) For one day or 10 min pretreatment, cells were seeded at a number allowing 5 doubling populations growth without reaching confluence in the untreated samples. They were then pretreated during the time indicated at the indicated NHC-Pt concentrations, irradiated at 1, 2, 3 and 4 Gy for A2780 cell lines and 2. 4. 6 and 8 Gy for H1299 and allow growing until 6 days. IC5 cells were irradiated at 1, 2, 3, 4 and 5 Gy, CC11^+ were irradiated at 2, 3, 4, 5 and 6 Gy and allow growing until 7 days, CRL1550 were irradiated at 2, 4, 6 and 8 Gy and allow growing until 5 days. CRL79200 were irradiated at 1, 2, 3 and 4 Gy and allow growing until 15 days. For 4 days pretreatment, cells were seeding in the conditions of cell cytotoxicity determination, trypsinised, seeded at a number allowing 5 doubling population growth without reaching confluence in the untreated samples and treated one day before irradiation. Irradiation is using GSR D1 irradiator (gamma-ray, 662 keV). The cells were left to grow for 6 days to allow at least 5 population doublings. Cell count of each well is taken and a graph is plotted with the percentage survival of each treatment of cells with its control (0 Gy). […]
# (§4) All the complexes were first evaluated for their radiosensitizing properties on A2780 and H1299 cell lines. […] The D10 doses were evaluated as the doses allowing 10% survival six days post-irradiation. […]
# H1299 cell lines = assay: Radiosensitization assay on H1299; settings: H1299, 1 μM complex, 1 day pretreatment, D10 six days post-irradiation
# Experimental: as §3, §4
# A2780 cells = assay: Immunofluorescence assay, DNA damage repair kinetics (γ-H2AX and 53BP1 foci); settings: A2780, 2 Gy, 2 h and 6 h post irradiation, 1 day pre-treatment
# Experimental: Immunofluorescence Assays. A2780 cells were plated on coverslips in 6-well plates. After 1 day of incubation with the various NHC-Pt at their RS doses, cells were irradiated at 2 Gys, incubated the time indicated post-irradiation, washed with phosphate-buffered saline (PBS), then fixed 10 minutes in 4% formaldehyde. After a wash with PBS, cells were permeabilised 2 min using 0.5% Triton X-100 and is washed with PBS. The cells were incubated in blocking buffer (5% bovine serum albumin in PBS) for 30 min before being incubated for 1 h with the primary mouse monoclonal antibody against g-H2AX (milipore) or 53BP1. After three washes with PBS, the cells were incubated for an additional 1 h with the Alexa Fluor 488-conjugated secondary antibody (Alexa Fluor 488 goat anti-mouse IgG; Life Technologies). Nuclei were labeled using DAPI and the coverslides were mounted with Vectashield™. Acquisitions were performed on a3D-dev or 3D-SIM in the microscopy platform from Institut Curie. ImageJ software ([…]) was used to project the z-stacks and count the number of g-H2AX or 53BP1 spots as well as their intensity and size in nuclei. […]
# The inventors analyzed, by immunofluorescence, the γ-H2AX and 53BP1 foci, γ-H2AX being a DNA damage sensor and 53BP1 being a DNA repair sensor at different time post-irradiation (0.5-24 h).
SMILES,ability to counteract the cisplatin resistance [1],cytotoxic activity as compared to C2 [6],radiosensitizing properties at 1 μM (A2780 cell lines),radiosensitizing properties at 1 μM (H1299 cell lines),other results
"CN1C=CN(C)[CH]1[Pt]([NH2])([I])[I] [MS113, trans-Diiodo(ammonia)(1,3-dimethylimidazol-2-ylidene)platinum]",it is not the case,,,,
"N.N.[Cl][Pt][Cl] [Cisplatin, cisplatin]",,,,,"IC50 [2]: 490 ± 50 nM; IC50 ([1]; cisplatin-resistant cell line, 96 h, read-out: IC50 in A780cis cell line): 6000 nM; IC50 [3]: 300 nM; IC50 [4]: 6 nM; IC50 [5]: 390 ± 40 nM"
"OCCN1C=CN(CCCCCCN2C=CN(CCO)[CH]2[Pt]([I])([I])[NH]C2CCCCC2)[CH]1[Pt]([I])([I])[NH]C1CCCCC1 (stereo not drawn) [C9, {1,1′-(hexane-1,6-diyl)bis[3-(2-hydroxethyl)imidazol-2-ylidene]}bis{[trans-diiodo(N-cyclohexylamine)platinum]}]",,improved cytotoxic activity,,,
"CN1C=CN(C)[CH]1[Pt]([I])([I])[NH]C1CCCCC1 [MS140, trans-Diiodo(N-cyclohexylamine)(1,3-dimethylimidazol-2-ylidene)platinum]",,,significant radiosensitizing properties,significant radiosensitizing properties,
"CN1C=CN(CCCCCCN2C=CN(C)[CH]2[Pt]([I])([I])[N]2CCOCC2)[CH]1[Pt]([I])([I])[N]1CCOCC1 (stereo not drawn) [C7, [1,1′-(hexane-1,6-diyl)bis(3-methylimidazol-2-ylidene)]bis[trans-diiodo(N-morpholine)platinum]]",,improved cytotoxic activity,,,
"CN1C=CN(CCCCCCN2C=CN(C)[CH]2[Pt]([NH2])([I])[I])[CH]1[Pt]([NH2])([I])[I] (stereo not drawn) [C2, [1,1′-(hexane-1,6-diyl)bis(3-methylimidazol-2-ylidene)]bis[trans-diiodo(ammonia)platinum]]",able to counteract the cisplatin resistance,,significant radiosensitizing properties,significant radiosensitizing properties,DNA damage repair after irradiation (γ-H2AX foci) (A2780 cells): induced a delay in the DNA damage repair
